# Active and inactive are the calls of the source. The rule behind the calls is not given here.
# What was measured:
# Galectin-1 [1] = biological target: T1, Galectin-1 (Homo sapiens, UniProt P09382); assay: Binding affinity to human galectin 1 assessed as dissociation constant incubated for 30 mins in presence of TDGA probe by fluorescence polarization assay
# Galectin-3 [2] = biological target: T2, Galectin-3 (Homo sapiens, UniProt P17931); assay: Binding affinity to human galectin-3 assessed as dissociation constant by fluorescence polarization assay
# T2 sequence (P17931 whole entry): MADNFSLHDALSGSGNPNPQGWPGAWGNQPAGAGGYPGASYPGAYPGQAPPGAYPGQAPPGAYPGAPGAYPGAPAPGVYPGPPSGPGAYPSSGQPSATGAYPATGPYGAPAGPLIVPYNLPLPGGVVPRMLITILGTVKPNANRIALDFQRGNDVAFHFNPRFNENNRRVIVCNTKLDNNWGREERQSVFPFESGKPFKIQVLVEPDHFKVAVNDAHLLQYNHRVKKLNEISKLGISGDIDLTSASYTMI
# [3] = Lipophilicity, logD of compound at pH 7.4 preincubated with octanol for 5 mins followed by phosphate buffer addition and measured after 1 hrs by shakeflask method based LC-MS/MS analysis; assay type: physicochemical; settings: time 65 min
# [4] = Apparent permeability from apical to basolateral side in human Caco-2 cells at 10 uM incubated for 90 mins by LC-MS/MS analysis; assay type: ADME, cell-based
# [5] = Apparent permeability from basolateral to apical side in human Caco-2 cells at 10 uM incubated for 90 mins by LC-MS/MS analysis; assay type: ADME, cell-based
# [6] = Metabolic stability in human hepatocytes assessed as intrinsic clearance measured per 10^6 cells at 2 uM incubated for 15 to 120 mins by LC-MS/MS analysis; assay type: ADME, cell-based, Hepatocyte; settings: time 15-120 min, read-out: CLH
# [7] = Metabolic stability in mouse hepatocytes assessed as intrinsic clearance measured per 10^6 cells at 2 uM incubated for 15 to 120 mins by LC-MS/MS analysis; assay type: ADME, cell-based, Hepatocyte; settings: time 15-120 min, read-out: CLH
# [8] = Protein binding in human plasma assessed as unbound fraction at 2 uM incubated for 5 hrs by equilibrium dialysis based LC-MS/MS analysis; assay type: ADME, cell-free
# [9] = Protein binding in mouse plasma assessed as unbound fraction at 2 uM incubated for 5 hrs by equilibrium dialysis based LC-MS/MS analysis; assay type: ADME, cell-free
# Jurkat [10] = assay: Inhibition of galectin-1 induced apoptosis in human Jurkat T cells assessed as reduction in caspase-3 activation upto 24 uM incubated for 24 hrs by CellEvent caspase-3/7 green fluorescent detection reagent based imaging analysis; assay type: functional, cell-based
# [11] = Cytotoxicity against human A549 cells assessed as inhibition of cell growth incubated for 72 hrs by MTT assay; assay type: toxicity, cell-based
# Galectin-4 [12] = biological target: T3, Galectin-4 (Homo sapiens, UniProt P56470); assay: Binding affinity to N-terminal human Galectin-4 assessed as dissociation constant by fluorescence polarization assay
# T3 sequence (P56470 whole entry): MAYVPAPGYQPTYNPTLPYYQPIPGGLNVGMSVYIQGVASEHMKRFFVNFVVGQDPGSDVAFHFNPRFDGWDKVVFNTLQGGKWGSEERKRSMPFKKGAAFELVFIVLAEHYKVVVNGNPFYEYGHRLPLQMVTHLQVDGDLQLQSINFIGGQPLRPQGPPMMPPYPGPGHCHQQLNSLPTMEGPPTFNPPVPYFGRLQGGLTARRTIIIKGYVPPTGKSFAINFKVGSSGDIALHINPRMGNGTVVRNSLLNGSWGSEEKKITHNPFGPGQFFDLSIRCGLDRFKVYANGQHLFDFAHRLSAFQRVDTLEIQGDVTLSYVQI
# Galectin-4 [13] = biological target: T3, Galectin-4; assay: Binding affinity to C-terminal human Galectin-4 assessed as dissociation constant by fluorescence polarization assay
# Galectin-7 = Galectin-7 (Homo sapiens, UniProt P47929); assay: Binding affinity to human Galectin-7 assessed as dissociation constant by fluorescence polarization assay
# Galectin-7, sequence (P47929 whole entry): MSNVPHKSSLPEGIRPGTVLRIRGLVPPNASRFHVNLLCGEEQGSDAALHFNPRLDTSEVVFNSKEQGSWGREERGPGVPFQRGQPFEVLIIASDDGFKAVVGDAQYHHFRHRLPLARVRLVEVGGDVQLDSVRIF
# Galectin-8 [14] = biological target: T4, Galectin-8 (Homo sapiens, UniProt O00214); assay: Binding affinity to N-terminal human Galectin-8 assessed as dissociation constant by fluorescence polarization assay
# T4 sequence (O00214 whole entry): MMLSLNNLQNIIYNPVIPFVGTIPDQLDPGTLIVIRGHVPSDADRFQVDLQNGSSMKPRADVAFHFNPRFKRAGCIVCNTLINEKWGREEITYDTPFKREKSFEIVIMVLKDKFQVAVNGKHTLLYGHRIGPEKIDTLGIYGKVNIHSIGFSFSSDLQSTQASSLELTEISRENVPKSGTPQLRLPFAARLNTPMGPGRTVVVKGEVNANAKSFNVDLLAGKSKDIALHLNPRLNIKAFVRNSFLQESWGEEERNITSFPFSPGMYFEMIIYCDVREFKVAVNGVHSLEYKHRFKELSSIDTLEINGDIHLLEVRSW
# Galectin-8 [15] = biological target: T4, Galectin-8; assay: Binding affinity to C-terminal human Galectin-8 assessed as dissociation constant by fluorescence polarization assay
# Galectin-9 [16] = biological target: T5, Galectin-9 (Homo sapiens, UniProt O00182); assay: Binding affinity to N-terminal human Galectin-9 assessed as dissociation constant by fluorescence polarization assay
# T5 sequence (O00182 whole entry): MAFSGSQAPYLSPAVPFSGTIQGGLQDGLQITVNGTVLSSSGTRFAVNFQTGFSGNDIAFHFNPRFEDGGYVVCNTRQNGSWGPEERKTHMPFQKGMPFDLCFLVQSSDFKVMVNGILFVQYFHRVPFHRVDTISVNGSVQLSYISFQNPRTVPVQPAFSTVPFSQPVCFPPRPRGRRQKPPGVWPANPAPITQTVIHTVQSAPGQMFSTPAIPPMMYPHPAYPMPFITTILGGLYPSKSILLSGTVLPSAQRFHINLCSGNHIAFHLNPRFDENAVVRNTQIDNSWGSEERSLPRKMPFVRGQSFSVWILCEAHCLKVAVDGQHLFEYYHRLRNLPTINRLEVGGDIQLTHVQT
# Galectin-9 [17] = biological target: T5, Galectin-9; assay: Binding affinity to C-terminal human Galectin-9 assessed as dissociation constant by fluorescence polarization assay
# Galectin-1 [18] = biological target: T6, Galectin-1 (Mus musculus, UniProt P16045); assay: Binding affinity to mouse Galectin-1 assessed as dissociation constant incubated for 30 mins in the presence of TDGA probe by fluorescence polarization assay
# T6 sequence (P16045 whole entry): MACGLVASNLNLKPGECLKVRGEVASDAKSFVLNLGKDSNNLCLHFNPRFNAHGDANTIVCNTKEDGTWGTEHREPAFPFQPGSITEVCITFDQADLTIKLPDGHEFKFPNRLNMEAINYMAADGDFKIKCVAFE
# Galectin-3 [19] = biological target: T7, Galectin-3 (Mus musculus, UniProt P16110); assay: Binding affinity to mouse Galectin-3 assessed as dissociation constant by fluorescence polarization assay
# T7 sequence (P16110 whole entry): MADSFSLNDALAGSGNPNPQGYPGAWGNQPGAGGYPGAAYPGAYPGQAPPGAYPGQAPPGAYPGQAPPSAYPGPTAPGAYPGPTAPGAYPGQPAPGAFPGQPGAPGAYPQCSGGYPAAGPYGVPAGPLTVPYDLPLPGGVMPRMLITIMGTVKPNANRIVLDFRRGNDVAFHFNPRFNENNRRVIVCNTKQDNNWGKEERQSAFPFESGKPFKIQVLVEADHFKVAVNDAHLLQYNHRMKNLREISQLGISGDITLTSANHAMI
# Galectin-1 [20] = biological target: T1, Galectin-1; assay: Binding affinity to human galectin-1 assessed as dissociation constant by SPR analysis
# Galectin-1 [21] = biological target: T6, Galectin-1; assay: Binding affinity to mouse full-length galectin-1 assessed as dissociation constant by SPR analysis
# Galectin-3 [22] = biological target: T2, Galectin-3; assay: Binding affinity to human galectin-3 assessed as dissociation constant by SPR analysis
# Galectin-3 [23] = biological target: T7, Galectin-3; assay: Binding affinity to mouse full-length galectin-3 assessed as dissociation constant by SPR analysis
# A549 = assay: Cytotoxicity against human A549 cells assessed as reduction in cell viability incubated for 72 hrs by MTT assay relative to control; assay type: toxicity, cell-based; settings: a549, 72 h
# Jurkat [24] = assay: Inhibition of galectin-1 induced apoptosis in human Jurkat T cells assessed as reduction in caspase-3 activation incubated for 24 hrs by CellEvent caspase-3/7 green fluorescent detection reagent based imaging analysis
# [25] = Clearance in C57BL/6 mouse at 1 mg/kg, iv measured upto 8 hrs by HPLC analysis; assay type: ADME, organism-based; settings: in vivo
# [26] = Volume of distribution at steady state in C57BL/6 mouse at 1 mg/kg, iv measured upto 8 hrs by HPLC analysis; assay type: ADME, organism-based; settings: in vivo, read-out: Vdss
# [27] = Tmax in C57BL/6 mouse at 10 mg/kg, po or 1 mg/kg, iv by HPLC analysis; assay type: ADME, organism-based; settings: in vivo
# [28] = Cmax in C57BL/6 mouse at 10 mg/kg, po or 1 mg/kg, iv by HPLC analysis; assay type: ADME, organism-based; design: dose 10 mg/kg, route po; settings: in vivo
# [29] = AUCinfinity in C57BL/6 mouse at 10 mg/kg, po or 1 mg/kg, iv by HPLC analysis; assay type: ADME, organism-based; design: dose 10 mg/kg, route po; settings: in vivo
# [30] = Oral bioavailability in C57BL/6 mouse at 10 mg/kg measured upto 24 hrs by HPLC analysis; assay type: ADME, organism-based; settings: in vivo
# Galectin-1 [31] = biological target: T1, Galectin-1; assay: Binding affinity to galectin-1 (unknown origin) assessed as dissociation constant
# Galectin-3 [32] = biological target: T2, Galectin-3; assay: Binding affinity to galectin-3 (unknown origin) assessed as dissociation constant
# T1 sequence (P09382 whole entry): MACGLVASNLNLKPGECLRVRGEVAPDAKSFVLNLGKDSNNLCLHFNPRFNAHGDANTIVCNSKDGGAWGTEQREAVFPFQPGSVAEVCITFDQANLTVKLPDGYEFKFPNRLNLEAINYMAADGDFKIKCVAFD
compound,measurement,setting,value
OC[C@H]1O[C@H](Sc2ccc(Cl)c(Cl)c2)[C@H](O)[C@@H](n2cc(-c3nncs3)nn2)[C@H]1O,Kd,Galectin-1 [1],1700 nM
same,Kd,Galectin-3 [2],1300 nM
OC[C@H]1O[C@H](Sc2cc(Cl)c(F)c(Cl)c2)[C@H](O)[C@@H](n2cc(-c3cscn3)nn2)[C@H]1O,logD at 1 h,[3],2.9
same,Kd,Galectin-1 [1],330 nM
same,Kd,Galectin-3 [2],2900 nM
same,"Papp A→B at 1.5 h, 10 µM",[4],9 ×10⁻⁶ cm/s
same,"Papp B→A at 1.5 h, 10 µM",[5],30 ×10⁻⁶ cm/s
same,hepatocyte CLint at 2 µM,[6],< 1 µL/min/1e6 cells
same,hepatocyte CLint at 2 µM,[7],< 1.5 µL/min/1e6 cells
same,"fraction unbound at 5 h, 2 µM",[8],0.033
same,"fraction unbound at 5 h, 2 µM",[9],0.015
OC[C@H]1O[C@H](Sc2ccc(Cl)c(Cl)c2)[C@H](O)[C@@H](n2cc(-c3cscn3)nn2)[C@H]1O,logD at 1 h,[3],> 4
same,Kd,Galectin-1 [1],350 nM
same,Kd,Galectin-3 [2],8000 nM
same,"Papp A→B at 1.5 h, 10 µM",[4],6 ×10⁻⁶ cm/s
same,"Papp B→A at 1.5 h, 10 µM",[5],50 ×10⁻⁶ cm/s
same,hepatocyte CLint at 2 µM,[6],1.1 µL/min/1e6 cells
same,hepatocyte CLint at 2 µM,[7],< 1.5 µL/min/1e6 cells
same,"fraction unbound at 5 h, 2 µM",[8],0.068
same,"fraction unbound at 5 h, 2 µM",[9],0.033
OC[C@H]1O[C@H](Sc2ccc(Cl)c(Cl)c2)[C@H](O)[C@@H](n2cc(-c3ccsc3)nn2)[C@H]1O,logD at 1 h,[3],3.6
same,Kd,Galectin-1 [1],280 nM
same,Kd,Galectin-3 [2],2100 nM
same,"Papp A→B at 1.5 h, 10 µM",[4],10 ×10⁻⁶ cm/s
same,"Papp B→A at 1.5 h, 10 µM",[5],18 ×10⁻⁶ cm/s
same,hepatocyte CLint at 2 µM,[6],4.9 µL/min/1e6 cells
same,hepatocyte CLint at 2 µM,[7],15 µL/min/1e6 cells
same,"fraction unbound at 5 h, 2 µM",[8],0.014
same,"fraction unbound at 5 h, 2 µM",[9],0.015
OC[C@H]1O[C@H](Sc2ccc(Cl)c(Cl)c2)[C@H](O)[C@@H](n2cc(-c3cc(F)c(F)c(F)c3)nn2)[C@H]1O,"Papp A→B at 1.5 h, 10 µM",[4],19 ×10⁻⁶ cm/s
same,"Papp B→A at 1.5 h, 10 µM",[5],20 ×10⁻⁶ cm/s
OC[C@H]1O[C@H](Sc2ccc(Cl)c(Cl)c2)[C@H](O)[C@@H](n2cc(-c3ncsn3)nn2)[C@H]1O,Kd,Galectin-1 [1],2000 nM
same,Kd,Galectin-3 [2],3400 nM
CN(C)CCNC(=O)COc1c2cccc1Cc1cccc(c1OCC(=O)NCCN(C)C)Cc1cccc(c1OCC(=O)NCCN(C)C)Cc1cccc(c1OCC(=O)NCCN(C)C)C2,inhibition,Jurkat [10],inactive
OC[C@H]1O[C@H](Sc2cc(Cl)c(F)c(Cl)c2)[C@H](O)[C@@H](n2cc(-c3nccs3)nn2)[C@H]1O,IC50 at 72 h,[11],> 90000 nM
same,logD at 1 h,[3],3.1
same,Kd,Galectin-1 [1],410 nM
same,Kd,Galectin-3 [2],2700 nM
same,"Papp A→B at 1.5 h, 10 µM",[4],11 ×10⁻⁶ cm/s
same,"Papp B→A at 1.5 h, 10 µM",[5],31 ×10⁻⁶ cm/s
same,hepatocyte CLint at 2 µM,[6],< 1 µL/min/1e6 cells
same,hepatocyte CLint at 2 µM,[7],< 1.5 µL/min/1e6 cells
same,"fraction unbound at 5 h, 2 µM",[8],0.038
same,"fraction unbound at 5 h, 2 µM",[9],0.013
same,Kd,Galectin-4 [12],37000 nM
same,Kd,Galectin-4 [13],2500 nM
same,Kd,Galectin-7,60000 nM
same,Kd,Galectin-8 [14],65000 nM
same,Kd,Galectin-8 [15],130000 nM
same,Kd,Galectin-9 [16],16000 nM
same,Kd,Galectin-9 [17],23000 nM
same,Kd,Galectin-1 [18],230 nM
same,Kd,Galectin-3 [19],5800 nM
same,Kd,Galectin-1 [20],644 nM
same,Kd,Galectin-1 [21],363 nM
same,Kd,Galectin-3 [22],62600 nM
same,Kd,Galectin-3 [23],70400 nM
same,Activity,A549,46.6%
same,IC50,Jurkat [24],2300 nM
same,clearance,[25],7.5 mL/min/kg
same,Vd,[26],0.4 L/kg
same,Tmax,[27],30 min
same,Cmax,[28],6900 ng/mL
same,AUC(0-inf),[29],3200 ng·h/mL
same,bioavailability,[30],> 99%
OC[C@H]1O[C@H](Sc2cncc(Br)c2)[C@H](O)[C@@H](n2cc(-c3ccsc3)nn2)[C@H]1O,logD at 1 h,[3],2
same,Kd,Galectin-1 [1],680 nM
same,Kd,Galectin-3 [2],1700 nM
same,"Papp A→B at 1.5 h, 10 µM",[4],4.5 ×10⁻⁶ cm/s
same,"Papp B→A at 1.5 h, 10 µM",[5],31 ×10⁻⁶ cm/s
OC[C@H]1O[C@H](Sc2cc(Cl)c(F)c(Cl)c2)[C@H](O)[C@@H](n2cc(-c3cccs3)nn2)[C@H]1O,Kd,Galectin-1 [1],970 nM
same,Kd,Galectin-3 [2],1500 nM
OC[C@H]1O[C@H](Sc2ccc(Cl)c(Cl)c2)[C@H](O)[C@@H](n2cc(-c3ncc[nH]3)nn2)[C@H]1O,logD at 1 h,[3],2.3
same,Kd,Galectin-1 [1],640 nM
same,Kd,Galectin-3 [2],2100 nM
same,"Papp A→B at 1.5 h, 10 µM",[4],0.4 ×10⁻⁶ cm/s
same,"Papp B→A at 1.5 h, 10 µM",[5],25 ×10⁻⁶ cm/s
OC[C@H]1O[C@@H](S[C@@H]2O[C@H](CO)[C@H](O)[C@H](n3cc(-c4ccsc4)nn3)[C@H]2O)[C@H](O)[C@@H](n2cc(-c3ccsc3)nn2)[C@H]1O,Kd,Galectin-1 [31],< 10 nM
same,Kd,Galectin-3 [32],65 nM
OC[C@H]1O[C@H](Sc2ccc(Cl)c(Cl)c2)[C@H](O)[C@@H](n2cc(-c3ncco3)nn2)[C@H]1O,Kd,Galectin-1 [1],2700 nM
same,Kd,Galectin-3 [2],11000 nM
OC[C@H]1O[C@H](Sc2cc(Cl)c(F)c(Cl)c2)[C@H](O)[C@@H](n2cc(-c3cncs3)nn2)[C@H]1O,Kd,Galectin-1 [1],22000 nM
same,Kd,Galectin-3 [2],3000 nM
